Patent US20170027893A1, “THIOSEMICARBAZONES INHIBITORS OF LYSOPHOSPHATIDIC ACID ACYLTRANSFERASE AND USES THEREOF” (H. LEE CANCER CENTER AND RESEARCH INSTITUTE, INC., priority 2014, published 2017)
Where “and” joins values, the source holds several entries; their conditions need not be identical. Identical values can stand only once. Like-named read-outs stand apart in the source and are kept apart here.

Key:
[1] = biological target: T1, LPAAT-β (Homo sapiens, UniProt O15120); conditions: previously reported inhibitors; cited from earlier work
T1 sequence (O15120 24-278): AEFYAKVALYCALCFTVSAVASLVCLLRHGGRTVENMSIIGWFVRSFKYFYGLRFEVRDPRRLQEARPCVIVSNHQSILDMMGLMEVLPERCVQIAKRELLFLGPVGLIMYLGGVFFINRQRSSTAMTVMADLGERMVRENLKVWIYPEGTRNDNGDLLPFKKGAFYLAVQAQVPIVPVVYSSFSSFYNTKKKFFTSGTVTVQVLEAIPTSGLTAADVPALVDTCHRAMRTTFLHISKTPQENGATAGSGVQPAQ

[2] = test system: MiaPaCa2 human pancreatic cancer cells; test: inhibition of proliferation, Alamar blue, 72 h; assay type: cell-based
Description: The ability of selected compounds from the libraries 6, 15 and 19 to inhibit the growth of MiaPaCa2 human pancreatic cancer cells was investigated. Human pancreatic carcinoma (MiaPaCa2) cells were plated at a low confluency into 96-well tissue culture-treated plates. After allowing cells to attach and grow overnight at 37 degrees in a 5% CO2 incubator, growth medium was replaced with fresh medium (100 μl/well) containing compounds in a range from 0.1-100 μM. All treatments were made from 500× stock solutions in DMSO, and the control wells received an equivalent amount of DMSO in medium. After 72 hours of growth in the presence of the compounds, Alamar blue was added to the wells according to the manufacturer's instructions (Life Technologies, Grand Island, N.Y.) and cells were incubated in its presence for 2-3 hours. Fluorescence readings were performed using a Biotek Synergy II plate reader with […] wavelengths of 530/590 nm. […] Calculated IC50s are representative of at least three independent experiments.

[3] = biological target: T1, LPAAT-β; test: secondary thin layer chromatography (TLC) assay measuring fluorescent PA; assay type: biochemical; parameters: The assay utilizes full-length, recombinant, baculovirus-produced LPAAT-β; made in house
[4] = biological target: T1, LPAAT-β; test: DTNB (Ellman's reagent) 96-well plate screening assay of LPAAT-β enzymatic activity; assay type: biochemical; parameters: The assay utilizes full-length, recombinant, baculovirus-produced LPAAT-β; made in house
Description: Screening with a modified screening assay in 96-well plate format for LPAAT-β enzymatic activity was performed as reported by Aguado and Campbell (Aguado et al., Characterization of a human lysophosphatidic acid acyltransferase that is encoded by a gene located in the class III region of the human major histocompatibility complex. J. Biol. Chem. 1998, 273, 4096-105).
The assay utilizes full-length, recombinant, baculovirus-produced LPAAT-β, which catalyzes the production of dioleoyl-[…] from the enzymatic substrates oleoyl-lysophosphatidic acid (LPA) and oleoyl-coenzyme A (Scheme 2). The ability of the compound to inhibit the LPAAT-β activity was assayed by the colorimetric measurement of the reaction of the free thiol group of the released coenzyme A with Ellman's reagent [5,5′-dithiobis-(2-nitrobenzoic acid) or DTNB] (Riener et al., Quick measurement of protein sulfhydryls with Ellman's reagent and with 4,4′-dithiodipyridine. Anal. Bioanal. Chem. 2002, 373, 266-76). […] A hit identified from the Life Chemicals library 6a (IC50 100 nM) was selected for further investigation.

[5] = read-out: IC50 (μM) (DTNB assay) (converted)
[6] = Table 4, read-out: IC50 (μm) (DTNB assay) (converted)

| Structure (SMILES) | IC50 [3] [µM] | IC50 [4, 5] | IC50 ([3]; Table 4) [µM] | IC50 [4, 6] [µM] | other results |
| --- | --- | --- | --- | --- | --- |
| CCOc1ccc(Cl)cc1-c1cc(Nc2ccc(Cl)cc2)nc(N)n1 [Compound 1] |  |  |  |  | in vitro activity against LPAAT-β enzyme activity, in words [1]: potent in vitro activity |
| C=CCc1cccc(/C=N/NC(N)=S)c1O [Compound 6a] | 33 ± 13 | 0.86 ± 0.52 µM |  |  | IC50 ([2]; Homo sapiens, MIA PaCa-2): 38 ± 17 µM; IC50 ([4]; hit from the Life Chemicals library, before resynthesis, read-out: IC50 of the hit in the library screen): 0.1 µM |
| NC(=S)NN=Cc1ccccc1O [Compound 6b] | > 100 | > 100 µM |  |  | LPAAT-β inhibitory activity in words (TLC assay) [3]: inactive; LPAAT-β inhibitory activity in words (assay not given) [4]: inactive |
| NC(=S)NN=Cc1cccc(O)c1O [Compound 6c] | > 10 | > 100 µM |  |  | LPAAT-β inhibitory activity in words (assay not given) [4]: inactive |
| CCOc1cccc(C=NNC(N)=S)c1O [Compound 6d] | > 10 | > 100 µM |  |  | LPAAT-β inhibitory activity in words (assay not given) [4]: inactive |
| NC(=S)NN=Cc1cccc(F)c1O [Compound 6e] | > 10 | 4.3 µM |  |  |  |
| NC(=S)NN=Cc1cccc(Cl)c1O [Compound 6f] | > 10 | 2 µM |  |  |  |
| NC(=S)NN=Cc1cccc(Br)c1O [Compound 6g] | > 10 | 1.5 µM |  |  |  |
| Cc1cccc(C=NNC(N)=S)c1O [Compound 6h] | > 10 | 7.5 µM |  |  |  |
| NC(=S)NN=Cc1cccc(C(F)(F)F)c1O [Compound 6i] | > 10 | 7 µM |  |  |  |
| CCc1cccc(C=NNC(N)=S)c1O [Compound 6j] | 48 ± 15 | 0.85 ± 0.56 µM |  |  | IC50 ([2]; Homo sapiens, MIA PaCa-2): 36 ± 20 µM |
| CCCc1cccc(C=NNC(N)=S)c1O [Compound 6k] | 19 ± 11 |  |  |  |  |
| CC(C)c1cccc(C=NNC(N)=S)c1O [Compound 6l] | 30 | 13 ± 8.4 µM |  |  |  |
| NC(=S)NN=Cc1cccc(-c2ccccc2)c1O [Compound 6m] | > 10 | 40 ± 10 µM |  |  |  |
| NC(=S)NN=Cc1cccc(C2CCCCC2)c1O [Compound 6n] | > 10 | > 100 µM |  |  |  |
| CCCCc1cccc(C=NNC(N)=S)c1O [Compound 6o] | > 10 |  |  |  |  |
| CCCCCc1cccc(C=NNC(N)=S)c1O [Compound 6p] | > 10 | > 100 µM |  |  |  |
| CCCCCCCc1cccc(C=NNC(N)=S)c1O [Compound 6q] | 9.7 | > 100 µM |  |  |  |
| NC(=S)NN=Cc1cccc(CCCc2ccccc2)c1O [Compound 6r] |  | > 100 µM |  |  |  |
| NC(=S)N/N=C/c1ccc2ccccc2c1O [Compound 6s] |  | 6.4 ± 4.7 µM |  |  |  |
| NC(=S)N/N=C/c1cccc2c1oc1ccccc12 [Compound 6t] |  |  |  |  | LPAAT-β inhibitory activity in words (assay not given) [4]: inactive |
| C=CCc1cccc(/C=N/NC(N)=O)c1O [Compound 6w] |  |  |  |  | LPAAT-β inhibitory activity in words (assay not given) [4]: inactive |
| C=CCc1cccc(C=NNC(=S)NC)c1O [Compound 10a] | > 10 | 3.9 ± 2.3 µM |  |  |  |
| CCCc1cccc(C=NNC(=S)NC)c1O [Compound 10b] | > 10 | 14 ± 12 µM |  |  |  |
| CCCc1cccc(C=NNC(=S)NC(=O)c2ccccc2)c1O [Compound 10c] |  | > 100 µM |  |  | LPAAT-β inhibitory activity in words (assay not given) [4]: inactive |
| NNC(N)=S [Thiosemicarbazide] |  |  |  |  | LPAAT-β inhibitory activity in words (assay not given) [4]: not by itself active |

Second part, led by results:

| IC50 [3] [µM] | IC50 [4, 5] | IC50 ([3]; Table 4) [µM] | IC50 [4, 6] [µM] | Structure (SMILES) | other results |
| --- | --- | --- | --- | --- | --- |
| > 10 | > 100 µM |  |  | C=CCc1cccc(C=NN=c2scc(-c3ccccc3)n2C)c1O [Compound 11a] | LPAAT-β inhibitory activity in words (assay not given) [4]: inactive |
| > 10 | > 100 µM |  |  | CCCc1cccc(C=NN=c2scc(-c3ccccc3)n2C)c1O [Compound 11b] | LPAAT-β inhibitory activity in words (assay not given) [4]: inactive |
| > 10 | > 100 µM |  |  | C=CCc1cccc(C=NN=c2[nH]c(-c3ccccc3)cs2)c1O [Compound 11c] |  |
| 35 ± 18 | 0.65 ± 0.42 µM |  |  | CCCc1cccc(C(C)=NNC(N)=S)c1O [Compound 15a] | IC50 ([2]; Homo sapiens, MIA PaCa-2): 23 ± 15 µM |
| > 10 | 0.52 ± 0.25 µM |  |  | C=CCc1cccc(C(C)=NNC(N)=S)c1O [Compound 15b] |  |
| > 10 | 0.73 ± 0.76 µM |  |  | CCc1cccc(C(C)=NNC(N)=S)c1O [Compound 15c] |  |
| 32 | 0.2 µM |  |  | C=CCc1cc(Cl)cc(C(C)=NNC(N)=S)c1O [Compound 15d] |  |
| > 10 | 2.8 µM |  |  | CC(=NNC(N)=S)c1cc(Cl)ccc1O [Compound 15e] |  |
| > 10 | 0.27 µM |  |  | CC(=NNC(N)=S)c1cc(Cl)cc(Cl)c1O [Compound 15f] |  |
| 3.3 ± 1.2 | 0.17 ± 0.09 µM | 3.3 ± 1.2 | 0.17 ± 0.09 | C=CCc1cc(Cl)cc(C(C)=NNC(N)=S)c1O [Compound 19a] | IC50 [2]: 14 ± 5.5 µM |
|  |  | 24 | 0.24 | C=CCc1cc(F)cc(C(C)=NNC(N)=S)c1O [Compound 19b] |  |
|  |  | 4.1 | 0.1 | C=CCc1cc(Br)cc(C(C)=NNC(N)=S)c1O [Compound 19c] |  |
|  |  | > 10 | 0.46 | C=CCc1cc(C#N)cc(C(C)=NNC(N)=S)c1O [Compound 19d] |  |
|  |  | 1.9 | 0.2 | C=CCc1cc(CC)cc(C(C)=NNC(N)=S)c1O [Compound 19e] |  |
|  |  | 2.4 | 0.27 | C=CCc1cc(CCC)cc(C(C)=NNC(N)=S)c1O [Compound 19f] |  |
|  |  | 1.4 | 0.16 | C=CCc1cc(C(C)C)cc(C(C)=NNC(N)=S)c1O [Compound 19g] |  |

| IC50 [3] [µM] | IC50 [4, 5] | IC50 ([3]; Table 4) [µM] | IC50 [4, 6] [µM] | Structure (SMILES) | other results |
| --- | --- | --- | --- | --- | --- |
| 1.4 ± 1.1 | 0.16 ± 0.07 µM | 1.4 | 0.16 | C=CCc1cc(CCCC)cc(C(C)=NNC(N)=S)c1O [Compound 19h] | IC50 [2]: 12 ± 3.3 µM |
|  |  | 1.3 | 0.31 | C=CCc1cc(C(C)(C)C)cc(C(C)=NNC(N)=S)c1O [Compound 19i] |  |
|  |  | 3.2 | 0.19 | C=CCc1cc(CCCCC)cc(C(C)=NNC(N)=S)c1O [Compound 19j] |  |
| 3.2 ± 1.6 | 17 ± 7.3 µM | 5.2 | 0.24 | C=CCc1cc(CCCCCC)cc(C(C)=NNC(N)=S)c1O [Compound 19k] |  |
| > 10 | 2.67 ± 0.25 µM |  |  | C=CCc1cc(C(C)=O)cc(C(C)=NNC(N)=S)c1O [Compound 19l] |  |
|  |  |  | 1.15 | C=CCc1cc(CC(=O)OC)cc(C(C)=NNC(N)=S)c1O [Compound 19m] |  |
| 5.7 ± 2.5 | 1.15 µM and 0.19 µM |  |  | C=CCc1cc(-c2ccccc2)cc(C(C)=NNC(N)=S)c1O [Compound 19n] |  |
| 4.2 ± 1.2 | 0.18 ± 0.07 µM | 4.2 | 0.18 | C=CCc1cc(-c2ccc(Br)cc2)cc(C(C)=NNC(N)=S)c1O [Compound 19o] | IC50 [2]: 5.8 ± 1.6 µM |
| 2.5 ± 1.4 | 0.32 ± 0.07 µM | 2.5 ± 1.4 | 0.32 ± 0.07 | C=CCc1cc(-c2ccc(Cl)cc2)cc(C(C)=NNC(N)=S)c1O [Compound 19p] | IC50 [2]: 7.4 ± 2.3 µM |
|  |  | 5.1 ± 3 | 0.29 ± 0.06 | C=CCc1cc(-c2ccc(F)cc2)cc(C(C)=NNC(N)=S)c1O [Compound 19q] |  |
| 2.1 ± 0.9 | 0.52 ± 0.23 µM | 2.1 ± 0.9 | 0.52 ± 0.23 | C=CCc1cc(-c2ccc(Cl)cc2Cl)cc(C(C)=NNC(N)=S)c1O [Compound 19r] | IC50 ([2]; Homo sapiens, MIA PaCa-2): 7.6 ± 0.9 µM |
| 17 ± 7.3 | 0.57 ± 0.27 µM | 17 ± 7.3 | 0.57 ± 0.27 | C=CCc1cc(-c2cc(Cl)cc(Cl)c2)cc(C(C)=NNC(N)=S)c1O [Compound 19t] | IC50 ([2]; Homo sapiens, MIA PaCa-2): 4.9 ± 2 µM |
|  | 0.36 ± 0.1 µM | 1 ± 0.9 | 0.4 ± 0.19 | C=CCc1cc(-c2ccc(C#N)cc2)cc(C(C)=NNC(N)=S)c1O [Compound 19u] |  |
| > 10 | 0.28 ± 0.02 µM | > 10 | 0.28 ± 0.02 | C=CCc1cc(-c2cccc(C#N)c2)cc(C(C)=NNC(N)=S)c1O [Compound 19v] | IC50 ([2]; Homo sapiens, MIA PaCa-2): 7.8 ± 2.7 µM |
| 9.2 ± 4.2 | 0.67 ± 0.16 µM | 9.2 ± 4.2 | 0.67 ± 0.16 | C=CCc1cc(-c2ccc(C)c(Cl)c2)cc(C(C)=NNC(N)=S)c1O [Compound 19w] | IC50 [2]: 7.2 ± 3.1 µM |
